Experimental data: US20220372040A1, “METTL3 MODULATORS” (Accent Therapeutics, Inc., priority 2020, published 2022)
Counter-ions that a name gives are not always drawn. Like-named read-outs stand apart in the source and are kept apart here.

How the values were obtained:
Format in all cases: biochemical
METTL3/METTL14 = METTL3/METTL14 (Homo sapiens, UniProt Q86U44); test: METTL3-14 standard enzyme assay (3H-SAM flashplate scintillation); details: METTL3/METTL14 2.5 nM, RNA 100 nM, 3H-SAM 100 nM, 30 min
Sequence of METTL3/METTL14 (Q86U44 whole entry, species assumed): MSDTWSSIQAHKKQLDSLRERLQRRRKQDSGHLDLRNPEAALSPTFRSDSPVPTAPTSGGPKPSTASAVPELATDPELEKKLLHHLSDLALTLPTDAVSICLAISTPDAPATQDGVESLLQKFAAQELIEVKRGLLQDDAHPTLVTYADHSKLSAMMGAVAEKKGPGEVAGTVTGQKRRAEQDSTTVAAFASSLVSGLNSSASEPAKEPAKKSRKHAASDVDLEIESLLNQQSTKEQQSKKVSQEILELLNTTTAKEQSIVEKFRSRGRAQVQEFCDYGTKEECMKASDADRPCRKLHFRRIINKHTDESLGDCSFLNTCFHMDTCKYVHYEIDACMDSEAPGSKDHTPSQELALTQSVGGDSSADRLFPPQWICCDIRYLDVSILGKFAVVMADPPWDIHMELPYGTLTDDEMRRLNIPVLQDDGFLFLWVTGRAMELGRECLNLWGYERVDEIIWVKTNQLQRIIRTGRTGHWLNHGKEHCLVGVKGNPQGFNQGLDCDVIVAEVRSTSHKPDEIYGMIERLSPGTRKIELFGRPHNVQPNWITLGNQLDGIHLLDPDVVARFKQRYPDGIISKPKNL
Sequence of METTL3/METTL14 (Q9HCE5 whole entry partner, species assumed): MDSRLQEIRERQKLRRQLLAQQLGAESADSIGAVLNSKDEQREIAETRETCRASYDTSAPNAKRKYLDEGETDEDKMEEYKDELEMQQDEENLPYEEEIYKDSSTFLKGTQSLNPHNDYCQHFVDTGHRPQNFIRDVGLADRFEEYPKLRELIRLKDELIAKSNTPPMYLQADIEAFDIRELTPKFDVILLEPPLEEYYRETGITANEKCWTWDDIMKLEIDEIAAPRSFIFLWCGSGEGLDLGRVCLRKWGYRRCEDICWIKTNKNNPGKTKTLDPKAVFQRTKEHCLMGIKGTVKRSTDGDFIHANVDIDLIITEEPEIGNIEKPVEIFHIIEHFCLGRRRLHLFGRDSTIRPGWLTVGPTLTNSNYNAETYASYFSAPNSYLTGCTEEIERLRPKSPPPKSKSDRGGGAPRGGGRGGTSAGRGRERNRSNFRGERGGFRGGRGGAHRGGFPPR
Method: METTL3-14 Standard Enzyme Assay
(§1) Assays were performed in a 25 μl-volume in 384-well V-bottom polypropylene microplates (Greiner Bio-One, cat. No. 781280) at ambient temperature. Optimized 1× assay buffer was 20 mM HEPES pH 7.5, 50 mM KCl, 250 μM MgCl2, 1 mM DTT, 0.01% Tween, 0.01% BSG, 0.004 U/μl RNAseOUT (cat. No. 10777019, ThermoFisher Scientific, Waltham, Mass.). For compound screening METTL3/METTL14 (final concentration, f.c.=2.5 nM) was added using a Multidrop Combi (ThermoFisher Scientific, Waltham, Mass.) and preincubated for 5 min. Reactions were started by adding 3′ biotinylated RNA (UCUGGACUAAA-biotin) (f.c.=100 nM) and 3H-SAM (f.c.=100 nM) substrates. Reactions proceeded for 30 minutes and were quenched with excess non-radioactive SAM (f.c.=15 μM). The reactions were then transferred to streptavidin-coated flashplates and incubated for 2 hours at 25° C. Following two washing cycles with 0.1% Tween-20, the plates were sealed and read on a TopCount (PerkinElmer, Waltham, Mass.) plate-based scintillation counter. For determination of kinetic parameters, reaction times were optimized so that measurements were taken during the initial velocity phase of the reaction.

METTL1/WDR4 = METTL1/WDR4 (Homo sapiens, UniProt Q9UBP6); test: METTL1 assay (3H-SAM flashplate scintillation)
Sequence of METTL1/WDR4 (Q9UBP6 whole entry, species assumed): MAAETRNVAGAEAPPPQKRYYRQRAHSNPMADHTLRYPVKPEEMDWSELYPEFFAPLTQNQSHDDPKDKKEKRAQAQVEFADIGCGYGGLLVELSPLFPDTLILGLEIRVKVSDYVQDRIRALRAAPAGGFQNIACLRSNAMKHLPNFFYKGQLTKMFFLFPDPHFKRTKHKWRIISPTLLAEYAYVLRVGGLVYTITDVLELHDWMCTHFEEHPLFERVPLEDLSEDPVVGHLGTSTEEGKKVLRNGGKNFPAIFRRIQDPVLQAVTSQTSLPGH
Sequence of METTL1/WDR4 (P57081 whole entry partner, species assumed): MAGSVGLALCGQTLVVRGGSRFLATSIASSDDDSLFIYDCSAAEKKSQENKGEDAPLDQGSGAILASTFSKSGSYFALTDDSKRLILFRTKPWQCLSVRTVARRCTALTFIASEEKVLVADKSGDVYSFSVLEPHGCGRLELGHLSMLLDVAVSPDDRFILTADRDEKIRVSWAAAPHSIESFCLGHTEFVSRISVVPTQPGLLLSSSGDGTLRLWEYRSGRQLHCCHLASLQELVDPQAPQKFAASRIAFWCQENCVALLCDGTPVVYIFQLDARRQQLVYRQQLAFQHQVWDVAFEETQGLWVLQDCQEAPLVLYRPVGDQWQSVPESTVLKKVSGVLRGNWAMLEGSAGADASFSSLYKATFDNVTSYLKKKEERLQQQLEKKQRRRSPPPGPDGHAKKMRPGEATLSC
Method: as §1, with “METTL1/WDR4” for “METTL3/METTL14”, “f.c.=6.25” for “f.c.=2.5”, “([…]-biotin) (f.c.=25” for “(UCUGGACUAAA-biotin) (f.c.=100”, “(f.c.=60” for “(f.c.=100”, “20” for “30”

PRMT5-MEP50 = PRMT5-MEP50 (Homo sapiens, UniProt O14744); test: PRMT5 assay (3H-SAM flashplate scintillation); details: PRMT5-MEP50 2.5 nM, histone H4 peptide 100 nM, 3H-SAM 250 nM, 60 min
Sequence of PRMT5-MEP50 (O14744 whole entry): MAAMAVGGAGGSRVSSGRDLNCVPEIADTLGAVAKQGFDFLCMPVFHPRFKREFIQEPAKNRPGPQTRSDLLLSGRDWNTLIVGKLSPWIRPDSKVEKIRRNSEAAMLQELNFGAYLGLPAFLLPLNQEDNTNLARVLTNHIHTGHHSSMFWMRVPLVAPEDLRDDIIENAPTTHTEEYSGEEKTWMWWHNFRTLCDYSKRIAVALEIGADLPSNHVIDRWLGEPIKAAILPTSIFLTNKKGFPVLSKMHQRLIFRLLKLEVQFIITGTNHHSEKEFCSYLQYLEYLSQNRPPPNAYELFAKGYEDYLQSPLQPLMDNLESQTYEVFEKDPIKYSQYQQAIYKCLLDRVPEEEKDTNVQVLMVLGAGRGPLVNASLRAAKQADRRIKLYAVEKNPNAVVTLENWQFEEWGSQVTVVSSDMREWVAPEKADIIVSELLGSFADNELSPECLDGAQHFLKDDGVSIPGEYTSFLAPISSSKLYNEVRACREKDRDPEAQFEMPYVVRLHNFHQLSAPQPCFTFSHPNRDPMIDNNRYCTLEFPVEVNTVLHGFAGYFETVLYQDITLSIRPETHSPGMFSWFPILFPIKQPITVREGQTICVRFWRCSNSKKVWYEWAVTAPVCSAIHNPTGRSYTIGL
Sequence of PRMT5-MEP50 (Q9BQA1 whole entry partner): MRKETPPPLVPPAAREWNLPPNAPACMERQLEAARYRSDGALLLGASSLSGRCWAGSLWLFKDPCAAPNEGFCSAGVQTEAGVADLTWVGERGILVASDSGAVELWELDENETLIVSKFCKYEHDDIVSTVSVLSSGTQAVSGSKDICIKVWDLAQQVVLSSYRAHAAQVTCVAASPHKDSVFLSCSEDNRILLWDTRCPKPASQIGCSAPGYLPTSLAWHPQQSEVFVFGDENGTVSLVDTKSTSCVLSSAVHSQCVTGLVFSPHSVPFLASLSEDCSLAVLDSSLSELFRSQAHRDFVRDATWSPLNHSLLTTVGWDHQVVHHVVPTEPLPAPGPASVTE
Method: Assays were performed in a 25 μl-volume in 384-well V-bottom polypropylene microplates (Greiner Bio-One, cat. No. 781280) at ambient temperature. Optimized 1× assay buffer was 20 mM Tris-HCl pH 8.0, 1 mM DTT, […]. For compound screening PRMT5-MEP50 (final concentration, f.c.=2.5 nM) was added using a Multidrop Combi (ThermoFisher Scientific, Waltham, Mass.) and preincubated for 5 min. Reactions were started by adding 3′ biotinylated histone H4 peptide acetylated on serine 1 (Ac-[…]-Biotin) (f.c.=100 nM) and 3H-SAM (f.c.=250 nM) substrates. Reactions proceeded for 60 minutes and were quenched with excess non-radioactive SAM (f.c.=15 μM). The reactions were then transferred to streptavidin-coated flashplates and incubated for 2 hours at 25° C. Following two washing cycles with 0.1% Tween-20, the plates were sealed and read on a TopCount (PerkinElmer, Waltham, Mass.) plate-based scintillation counter. For determination of kinetic parameters, reaction times were optimized so that measurements were taken during the initial velocity phase of the reaction.

METTL16 = biological target: T1, METTL16 (Homo sapiens, UniProt Q86W50); test: METTL16 assay (3H-SAM flashplate scintillation); details: METTL16 100 nM, RNA 50 nM, 3H-SAM 200 nM, SAM 800 nM, 20 min
T1 sequence (Q86W50 1-562): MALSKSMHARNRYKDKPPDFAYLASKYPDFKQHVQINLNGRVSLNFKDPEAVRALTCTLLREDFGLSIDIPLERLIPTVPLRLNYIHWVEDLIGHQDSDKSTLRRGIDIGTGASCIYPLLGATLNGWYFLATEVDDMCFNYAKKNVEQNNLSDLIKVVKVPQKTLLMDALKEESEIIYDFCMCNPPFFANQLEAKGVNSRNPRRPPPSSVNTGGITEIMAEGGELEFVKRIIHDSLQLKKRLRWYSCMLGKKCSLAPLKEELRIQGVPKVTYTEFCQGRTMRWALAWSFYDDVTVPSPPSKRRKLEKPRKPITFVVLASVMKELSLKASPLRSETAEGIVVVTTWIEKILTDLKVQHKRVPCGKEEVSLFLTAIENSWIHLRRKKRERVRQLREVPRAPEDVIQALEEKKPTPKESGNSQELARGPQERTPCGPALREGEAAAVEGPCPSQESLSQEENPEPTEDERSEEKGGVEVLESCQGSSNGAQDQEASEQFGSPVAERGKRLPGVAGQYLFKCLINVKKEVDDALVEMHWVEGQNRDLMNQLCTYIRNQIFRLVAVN
Method: Assays were performed in a 25 μl-volume in 384-well V-bottom polypropylene microplates (Greiner Bio-One, cat. No. 781280) at ambient temperature. Optimized 1× assay buffer was 20 mM HEPES pH 7.5, 50 mM KCl, 1 mM DTT, 0.01% Tween, 0.01% BSG, 0.004 U/μl RNAseOUT (cat. No. 10777019, ThermoFisher Scientific, Waltham, Mass.). For compound screening METTL16 (final concentration, f.c.=100 nM) was added using a Multidrop Combi (ThermoFisher Scientific, Waltham, Mass.) and preincubated for 5 min. Reactions were started by adding 3′ biotinylated RNA ([…]-biotin) (f.c.=50 nM), 3H-SAM (f.c.=200 nM) and non-radiolabeled SAM (f.c.=800 nM) substrates. Reactions proceeded for 20 minutes and were quenched with excess non-radioactive SAM (f.c.=100 μM). The reactions were then transferred to streptavidin-coated flashplates and incubated for 2 hours at 25° C. Following two washing cycles with 0.1% Tween-20, the plates were sealed and read on a TopCount (PerkinElmer, Waltham, Mass.) plate-based scintillation counter. For determination of kinetic parameters, reaction times were optimized so that measurements were taken during the initial velocity phase of the reaction.

[1] = METTL1/WDR4 6.25 nM, RNA 25 nM, 3H-SAM 60 nM, 20 min, read-out: METTL1 IC50

Compound | IC50 (METTL3/METTL14) | IC50 (METTL1/WDR4; [1]) | IC50 (PRMT5-MEP50) | IC50 (METTL16) | IC50 (METTL1/WDR4)
CNc1ccc2ccc(OCc3nc(-n4cc(Cl)c5c(N)ncnc54)cs3)cc2n1 [Compound I-37] | 10 to 100 nM | > 1000 nM | > 1000 nM | – | –
CNc1ccc2ccc(OCc3cc(-n4cc(Cl)c5c(N)ncnc54)ccc3OC)cc2n1 [Compound I-83] | > 1000 nM | – | > 1000 nM | > 1000 nM | –
C=CC(=O)N(CCC(=O)O)c1nc(N)c2ccn(-c3cncc(COc4ccc5ccc(NC)nc5c4)c3)c2n1 [Compound I-41] | > 1000 nM | – | > 1000 nM | > 1000 nM | –
Nc1ncnc2c1ccn2-c1cncc(COc2ccc3c(=O)cc[nH]c3c2)c1 [Compound I-88] | > 1000 nM | > 1000 nM | > 1000 nM | – | –
Nc1ccc2ccc(OCc3cncc(-n4ccc5c(N)ncnc54)c3)cc2n1 [Compound I-240] | 10 to 100 nM | > 1000 nM | > 1000 nM | – | –
CC(C)(C)c1cc(N)c2ccc(OCc3cncc(-n4ccc5c(N)ncnc54)c3)cc2n1 [Compound I-93] | < 10 nM | > 1000 nM | > 1000 nM | – | –
CC(C)c1nc(N)c2ccc(OCc3cncc(-n4ccc5c(N)ncnc54)c3)cc2n1 [Compound I-91] | 10 to 100 nM | > 1000 nM | > 1000 nM | – | –
Cc1cc(N)c2ccc(OCc3cncc(-n4cc(Cl)c5c(N)ncnc54)c3)cc2n1 [Compound I-53] | 10 to 100 nM | – | > 1000 nM | > 1000 nM | –
CN(Cc1cncc(-n2cc(-c3ccn(C)n3)c3c(N)ncnc32)c1)CC1CC1 [Compound I-100] | > 1000 nM | > 1000 nM | > 1000 nM | – | –
CCCC(=O)c1cn(-c2cncc(COc3ccc4ccc(NC)nc4c3)c2)c2ncnc(N)c12 [Compound I-96] | 10 to 100 nM | > 1000 nM | > 1000 nM | – | –
CC(C)Nc1ccc2ccc(OCc3cncc(-n4cc(Cl)c5c(N)ncnc54)c3)cc2n1 [Compound I-39] | 10 to 100 nM | – | > 1000 nM | > 1000 nM | –
CCc1nc(N)c2ccn(-c3cncc(COc4ccc5ccc(NC)nc5c4)c3)c2n1 [Compound I-8] | < 10 nM | > 1000 nM | > 1000 nM | – | –
CNc1ccc2ccc(OCc3cncc(-n4cc(C5CCC(F)(F)CC5)c5c(N)ncnc54)c3)cc2n1 [Compound I-3] | 10 to 100 nM | > 1000 nM | > 1000 nM | – | –
CNc1ccc2ccc(OCc3cc(OC)cc(-n4cc(Cl)c5c(N)ncnc54)c3)cc2n1 [Compound I-82] | 100 to 1000 nM | – | > 1000 nM | > 1000 nM | –
CCc1cc(NCCN(C)C)c2ccc(OCc3cncc(-n4ccc5c(N)ncnc54)n3)cc2n1 [Compound I-89] | < 10 nM | > 1000 nM | > 1000 nM | – | –
Nc1ncnc2c1c(C1CCCC1)cn2-c1cncc(COc2ccc3ccc(N4CCC4)nc3c2)c1 [Compound I-94] | < 10 nM | > 1000 nM | > 1000 nM | – | –
CNc1ccc2cc(F)c(OCc3cncc(-n4cc(C5CCCC5)c5c(N)ncnc54)c3)cc2n1 [Compound I-5] | – | > 1000 nM | > 1000 nM | – | –
CNc1ccc2ccc(OCc3nc(-n4ccc5c(N)ncnc54)cs3)cc2n1 [Compound I-19] | 10 to 100 nM | – | > 1000 nM | – | > 1000 nM
CNc1ccc2ccc(OCc3ncc(-n4cc(Cl)c5c(N)ncnc54)s3)cc2n1 [Compound I-24] | > 1000 nM | – | > 1000 nM | – | > 1000 nM
CNc1ccc2ccc(OCc3cc(-n4ccc5c(N)ncnc54)n[nH]3)cc2n1 [Compound I-2] | – | – | > 1000 nM | – | > 1000 nM
CNc1ccc2ccc(OC(C)c3cncc(-n4ccc5c(N)ncnc54)c3)cc2n1 (stereo not drawn) [Compound I-4] | – | > 1000 nM | > 1000 nM | – | –
Nc1ncnc2c1c(Cl)cn2-c1nnc(COc2ccc3ccc(N4CCCC4)nc3c2)s1 [Compound I-38, 5-chloro-7-(5-(((2-(pyrrolidin-1-yl)quinolin-7-yl)oxy)methyl)-1,3,4-thiadiazol-2-yl)-7H-pyrrolo[2,3-d]pyrimidin-4-amine trifluoroacetate] | > 1000 nM | – | > 1000 nM | – | > 1000 nM
Cc1cc(NCCN(C)CCCc2ccccc2)c2ccc(OCc3cncc(-n4ccc5c(N)ncnc54)c3)cc2n1 [Compound I-98] | 10 to 100 nM | > 1000 nM | > 1000 nM | – | –
CNc1ccc2ccc(COc3cncc(-n4ccc5c(N)ncnc54)c3)cc2n1 [Compound I-22, 7-{[(5-{4-amino-7H-pyrrolo[2,3-d]pyrimidin-7-yl}pyridin-3-yl)oxy]methyl}-N-methylquinolin-2-amine] | 10 to 100 nM | > 1000 nM | > 1000 nM | – | –
CNc1ccc2ccc(OCc3cc(C(N)=O)cc(-n4cc(Cl)c5c(N)ncnc54)c3)cc2n1 [Compound I-21] | 100 to 1000 nM | > 1000 nM | > 1000 nM | – | –
CNc1ccc2ccc(OCc3cc(-n4cc(Cl)c5c(N)ncnc54)cnc3NC)cc2n1 [Compound I-13] | 10 to 100 nM | > 1000 nM | > 1000 nM | – | –
Nc1ncnc2c1c(Cl)cn2-c1csc(COc2ccc3ccc(N4CCCC4)nc3c2)n1 [Compound I-23, 5-chloro-7-(2-(((2-(pyrrolidin-1-yl)quinolin-7-yl)oxy)methyl)thiazol-4-yl)-7H-pyrrolo[2,3-d]pyrimidin-4-amine hydrochloride] | > 1000 nM | – | > 1000 nM | – | > 1000 nM
